Results published in US12377112B2, “Methods of treating neurocognitive disorders, chronic pain and reducing inflammation” (priority 2019, dated 2025).

Legend:
healthy subjects [1] = assay: Phase 1 study: Five Dimension Altered States of Consciousness questionnaire (5D-ASC); type: in vivo, human; settings: Post-Treatment Day 0; Psilocybin 10 mg
Description: In some embodiments, the Five Dimension Altered States of Consciousness questionnaire (5D-ASC) is utilized to evaluate the safety and/or efficacy of psilocybin. […] The 5 dimensions include oceanic boundlessness, anxious ego dissolution, visionary restructuralization, auditory alterations and reduction of vigilance.

healthy subjects [2] = assay: Phase 1 study in healthy subjects: adverse events and acute effects; type: in vivo, human
Experimental: A Phase 1 randomized, double-blind, placebo-controlled study to evaluate the effect of psilocybin on cognitive and emotional processing as compared to placebo in healthy volunteers was conducted. The study investigated the short-term (Day 7) and long-term (Day 28) effects of moderate (10 mg) and high doses (25 mg) of psilocybin on key domains of cognition, such as episodic memory, attention, working and spatial memory, social cognition and elements of executive function, including cognitive flexibility.
90 healthy subjects were studied. Approximately 50% of the subjects were psilocybin-naïve. For subjects with prior psilocybin experience, the last exposure was at least 1 year prior to the signing of the Informed Consent Form (ICF). Approximately 50% of the subjects were female. Subjects were stratified by sex and age (18-35 years old; >35 years old).
Each subject was assigned 1 treatment bottle containing 5 capsules packaged in a double-blind fashion, depending on the randomized treatment arm, the bottle contained one of the following: • a. Psilocybin 10 mg: 2×5-mg oral psilocybin capsules plus 3×placebo capsules • b. Psilocybin 25 mg: 5×5-mg oral psilocybin capsules • c. Placebo: 5×placebo capsules
Each 5-mg oral psilocybin capsule comprised 5 mg crystalline psilocybin in the form of Polymorph A, 12.5 mg of SMCC 50, 79.5 mg of SMCC 90, 1 mg sodium starch glycolate, 1 mg colloidal silicon dioxide, and 1 mg sodium stearyl fumarate
Adverse events: Throughout the course of the study, all AEs were monitored and recorded. Each AE was classified according to the following criteria: • i. […] Moderate: The AE produces some impairment of functioning, but is not hazardous to the subject's health. • iii. Severe: The AE produces significant impairment of functioning or incapacitation and is a definite hazard to the subject's health.
Selected Adverse Events of included: • (a) Euphoric mood • (b) Dissociative disorder • (c) Hallucination • (d) Psychotic disorder • (e) Cognitive disorder • (f) Disturbance in attention • (g) Altered mood • (h) Impairment of psychomotor skills • (i) Inappropriate affect • (j) Overdose • (k) Intentional product misuse • (l) Illusion
For example, drug-induced hepatitis that resolved without evidence of hepatic failure would not be considered life threatening even though drug-induced hepatitis can be fatal. • (c) Inpatient hospitalization or prolongation of existing hospitalization. • (d) Persistent or significant disability/incapacity. • (e) Congenital anomaly/birth defect in the offspring of a subject who received psilocybin. • (f) Other: Important medical events that may not result in death, be life-threatening, or require hospitalization, may be considered an SAE when, based upon appropriate medical judgment, they may jeopardize the subject and may require medical or surgical intervention to prevent one of the outcomes listed in this definition. […] Visits:
Visit 3 (V3): Drug Administration (Day 0): The subject was asked to eat a light breakfast at least two hours prior to coming to the clinic for study drug administration. On Day 0 (V3), the subject underwent the SSTS, had vital signs obtained, medications reviewed, AEs recorded and eligibility reviewed prior to being randomized to study drug. The study drug was administered to up to six subjects simultaneously in individual beds separated by a curtain. The subject was invited to put on eyeshades and headphones, lie down and listen to calming music for the rest of the session (six hours). The subject was supported 1:1 with a chaperone and supervised by the study psychiatrist and lead therapist.
The effects of psilocybin usually started about 20 to 30 min after administration, becoming most intense in the first 90 to 120 min and gradually subsiding in about 5 to 6 hours. […]

CN(C)CCc1c[nH]c2cccc(OP(=O)(O)O)c12 [Psilocybin, psilocybin]
5D-ASC Complex imagery, LS mean (healthy subjects [1]): 53.0 | Illusion, worst severity Moderate: Events (healthy subjects [2]; 10 mg): 16 | Serious adverse events or adverse events that led to withdrawal (healthy subjects [2]; 10 mg and 25 mg, 12-week study): no serious adverse events | Selected TEAE (any), subjects N (%) (healthy subjects [2]; Psilocybin 10 mg (N = 30)): 27 (90.0) N (%) | Selected TEAE: Affect lability, Events (healthy subjects [2]; Psilocybin 10 mg (N = 30)): 5 | Selected TEAE: Affect lability, subjects N (%) (healthy subjects [2]; Psilocybin 10 mg (N = 30)): 5 (16.7) N (%) | Selected TEAE: Change in sustained attention, Events (healthy subjects [2]; Psilocybin 10 mg (N = 30)): 2 | Selected TEAE: Change in sustained attention, subjects N (%) (healthy subjects [2]; Psilocybin 10 mg (N = 30)): 2 (6.7) N (%) | Selected TEAE: Depressed mood, Events (healthy subjects [2]; Psilocybin 10 mg (N = 30)): 1 | Selected TEAE: Depressed mood, subjects N (%) (healthy subjects [2]; Psilocybin 10 mg (N = 30)): 1 (3.3) N (%) | Selected TEAE: Dissociative identity disorder, Events (healthy subjects [2]; Psilocybin 10 mg (N = 30)): 2 | Selected TEAE: Dissociative identity disorder, subjects N (%) (healthy subjects [2]; Psilocybin 10 mg (N = 30)): 1 (3.3) N (%) | Selected TEAE: Euphoric mood, Events (healthy subjects [2]; Psilocybin 10 mg (N = 30)): 7 | Selected TEAE: Euphoric mood, subjects N (%) (healthy subjects [2]; Psilocybin 10 mg (N = 30)): 7 (23.3) N (%) | Selected TEAE: Hallucination, Events (healthy subjects [2]; Psilocybin 10 mg (N = 30)): 3 | Selected TEAE: Hallucination, auditory, Events (healthy subjects [2]; Psilocybin 10 mg (N = 30)): 4 | Selected TEAE: Hallucination, auditory, subjects N (%) (healthy subjects [2]; Psilocybin 10 mg (N = 30)): 4 (13.3) N (%) | Selected TEAE: Hallucination, gustatory, Events (healthy subjects [2]; Psilocybin 10 mg (N = 30)): 1 | Selected TEAE: Hallucination, gustatory, subjects N (%) (healthy subjects [2]; Psilocybin 10 mg (N = 30)): 1 (3.3) N (%) | Selected TEAE: Hallucination, olfactory, Events (healthy subjects [2]; Psilocybin 10 mg (N = 30)): 1 | Selected TEAE: Hallucination, olfactory, subjects N (%) (healthy subjects [2]; Psilocybin 10 mg (N = 30)): 1 (3.3) N (%) | Selected TEAE: Hallucination, subjects N (%) (healthy subjects [2]; Psilocybin 10 mg (N = 30)): 3 (10.0) N (%) | Selected TEAE: Hallucination, tactile, Events (healthy subjects [2]; Psilocybin 10 mg (N = 30)): 2 | Selected TEAE: Hallucination, tactile, subjects N (%) (healthy subjects [2]; Psilocybin 10 mg (N = 30)): 2 (6.7) N (%) | Selected TEAE: Hallucination, visual, Events (healthy subjects [2]; Psilocybin 10 mg (N = 30)): 20 | Selected TEAE: Hallucination, visual, subjects N (%) (healthy subjects [2]; Psilocybin 10 mg (N = 30)): 18 (60.0) N (%) | Selected TEAE: Illusion, Events (healthy subjects [2]; Psilocybin 10 mg (N = 30)): 25 | Selected TEAE: Illusion, subjects N (%) (healthy subjects [2]; Psilocybin 10 mg (N = 30)): 19 (63.3) N (%) | Selected TEAE: Memory impairment, Events (healthy subjects [2]; Psilocybin 10 mg (N = 30)): 1 | Selected TEAE: Memory impairment, subjects N (%) (healthy subjects [2]; Psilocybin 10 mg (N = 30)): 1 (3.3) N (%) | Selected TEAE: Mood altered, Events (healthy subjects [2]; Psilocybin 10 mg (N = 30)): 23 | Selected TEAE: Mood altered, subjects N (%) (healthy subjects [2]; Psilocybin 10 mg (N = 30)): 13 (43.3) N (%) | Selected TEAE: Nervous system disorders (SOC), Events (healthy subjects [2]; Psilocybin 10 mg (N = 30)): 2 | Selected TEAE: Nervous system disorders (SOC), subjects N (%) (healthy subjects [2]; Psilocybin 10 mg (N = 30)): 2 (6.7) N (%) | Selected TEAE: Psychiatric disorders (SOC), Events (healthy subjects [2]; Psilocybin 10 mg (N = 30)): 104 | Selected TEAE: Psychiatric disorders (SOC), subjects N (%) (healthy subjects [2]; Psilocybin 10 mg (N = 30)): 27 (90.0) N (%) | Selected TEAE: Psychomotor skills impaired, Events (healthy subjects [2]; Psilocybin 10 mg (N = 30)): 1 | Selected TEAE: Psychomotor skills impaired, subjects N (%) (healthy subjects [2]; Psilocybin 10 mg (N = 30)): 1(3.3) N (%) | Selected TEAE: Somatic hallucination, Events (healthy subjects [2]; Psilocybin 10 mg (N = 30)): 8 | Selected TEAE: Somatic hallucination, subjects N (%) (healthy subjects [2]; Psilocybin 10 mg (N = 30)): 8 (26.7) N (%) | Selected TEAE: Substance-induced psychotic disorder, Events (healthy subjects [2]; Psilocybin 10 mg (N = 30)): 0 | Selected TEAE: Substance-induced psychotic disorder, subjects N (%) (healthy subjects [2]; Psilocybin 10 mg (N = 30)): 0 N (%) | Selected TEAE (any), subjects N (%) (healthy subjects [2]; Psilocybin 25 mg (N = 30)): 27 (90.0) N (%) | Selected TEAE: Affect lability, Events (healthy subjects [2]; Psilocybin 25 mg (N = 30)): 3 | Selected TEAE: Affect lability, subjects N (%) (healthy subjects [2]; Psilocybin 25 mg (N = 30)): 3 (10.0) N (%) | Selected TEAE: Change in sustained attention, Events (healthy subjects [2]; Psilocybin 25 mg (N = 30)): 0 | Selected TEAE: Change in sustained attention, subjects N (%) (healthy subjects [2]; Psilocybin 25 mg (N = 30)): 0 N (%) | Selected TEAE: Depressed mood, Events (healthy subjects [2]; Psilocybin 25 mg (N = 30)): 2 | Selected TEAE: Depressed mood, subjects N (%) (healthy subjects [2]; Psilocybin 25 mg (N = 30)): 2 (6.7) N (%) | Selected TEAE: Dissociative identity disorder, Events (healthy subjects [2]; Psilocybin 25 mg (N = 30)): 2 | Selected TEAE: Dissociative identity disorder, subjects N (%) (healthy subjects [2]; Psilocybin 25 mg (N = 30)): 2 (6.7) N (%) | Selected TEAE: Euphoric mood, Events (healthy subjects [2]; Psilocybin 25 mg (N = 30)): 8 | Selected TEAE: Euphoric mood, subjects N (%) (healthy subjects [2]; Psilocybin 25 mg (N = 30)): 7 (23.3) N (%) | Selected TEAE: Hallucination, Events (healthy subjects [2]; Psilocybin 25 mg (N = 30)): 2 | Selected TEAE: Hallucination, auditory, Events (healthy subjects [2]; Psilocybin 25 mg (N = 30)): 4 | Selected TEAE: Hallucination, auditory, subjects N (%) (healthy subjects [2]; Psilocybin 25 mg (N = 30)): 4 (13.3) N (%) | Selected TEAE: Hallucination, gustatory, Events (healthy subjects [2]; Psilocybin 25 mg (N = 30)): 0 | Selected TEAE: Hallucination, gustatory, subjects N (%) (healthy subjects [2]; Psilocybin 25 mg (N = 30)): 0 N (%) | Selected TEAE: Hallucination, olfactory, Events (healthy subjects [2]; Psilocybin 25 mg (N = 30)): 1 | Selected TEAE: Hallucination, olfactory, subjects N (%) (healthy subjects [2]; Psilocybin 25 mg (N = 30)): 1 (3.3) N (%) | Selected TEAE: Hallucination, subjects N (%) (healthy subjects [2]; Psilocybin 25 mg (N = 30)): 2 (6.7) N (%) | Selected TEAE: Hallucination, tactile, Events (healthy subjects [2]; Psilocybin 25 mg (N = 30)): 4 | Selected TEAE: Hallucination, tactile, subjects N (%) (healthy subjects [2]; Psilocybin 25 mg (N = 30)): 4 (13.3) N (%) | Selected TEAE: Hallucination, visual, Events (healthy subjects [2]; Psilocybin 25 mg (N = 30)): 22 | Selected TEAE: Hallucination, visual, subjects N (%) (healthy subjects [2]; Psilocybin 25 mg (N = 30)): 21 (70.0) N (%) | Selected TEAE: Illusion, Events (healthy subjects [2]; Psilocybin 25 mg (N = 30)): 26 | Selected TEAE: Illusion, subjects N (%) (healthy subjects [2]; Psilocybin 25 mg (N = 30)): 18 (60.0) N (%) | Selected TEAE: Memory impairment, Events (healthy subjects [2]; Psilocybin 25 mg (N = 30)): 0 | Selected TEAE: Memory impairment, subjects N (%) (healthy subjects [2]; Psilocybin 25 mg (N = 30)): 0 N (%) | Selected TEAE: Mood altered, Events (healthy subjects [2]; Psilocybin 25 mg (N = 30)): 25 | Selected TEAE: Mood altered, subjects N (%) (healthy subjects [2]; Psilocybin 25 mg (N = 30)): 15 (50.0) N (%) | Selected TEAE: Nervous system disorders (SOC), Events (healthy subjects [2]; Psilocybin 25 mg (N = 30)): 0 | Selected TEAE: Nervous system disorders (SOC), subjects N (%) (healthy subjects [2]; Psilocybin 25 mg (N = 30)): 0 N (%) | Selected TEAE: Psychiatric disorders (SOC), Events (healthy subjects [2]; Psilocybin 25 mg (N = 30)): 106 | Selected TEAE: Psychiatric disorders (SOC), subjects N (%) (healthy subjects [2]; Psilocybin 25 mg (N = 30)): 27 (90.0) N (%) | Selected TEAE: Psychomotor skills impaired, Events (healthy subjects [2]; Psilocybin 25 mg (N = 30)): 0 | Selected TEAE: Psychomotor skills impaired, subjects N (%) (healthy subjects [2]; Psilocybin 25 mg (N = 30)): 0 N (%) | Selected TEAE: Somatic hallucination, Events (healthy subjects [2]; Psilocybin 25 mg (N = 30)): 6 | Selected TEAE: Somatic hallucination, subjects N (%) (healthy subjects [2]; Psilocybin 25 mg (N = 30)): 5 (16.7) N (%) | Selected TEAE: Substance-induced psychotic disorder, Events (healthy subjects [2]; Psilocybin 25 mg (N = 30)): 1 | Selected TEAE: Substance-induced psychotic disorder, subjects N (%) (healthy subjects [2]; Psilocybin 25 mg (N = 30)): 1 (3.3) N (%)
